# Data: the supplement of paper PMC10307832
# Columns and labels:
# Experiment in all cases: relative viability (nuclei count vs DMSO), 5 days (fraction); higher = more cells survive
# [1] = test system: 201T
# How it was run: (§1)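 After 5 days of treatment, lung cancer cells in 1536-well plates were fixed and stained in a single step (final 0.05% Triton X-100, 1% formaldehyde, 1 ug/ml Hoechst) and their nuclei counted on 4× images. Treatment had been applied by pin tool the day after seeding as one drug alone or as a fixed anchor-drug dose with five library-drug doses (not always all listed) in √10 steps. Relative viability is the nuclei count of treated wells divided by that of vehicle wells, and values are medians of duplicate plates.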
# [2] = test system: ABC-1
# How it was run: as §1
# [3] = test system: BEN
# How it was run: as §1
# [4] = test system: CAL-12T
# How it was run: as §1
# [5] = test system: EKVX
# How it was run: as §1
# [6] = test system: HARA
# How it was run: as §1
# [7] = test system: HCC-366
# How it was run: as §1
# [8] = test system: LK-2
# How it was run: as §1
# [9] = test system: LU99A
# How it was run: as §1
# [10] = test system: NCI-H1437
# How it was run: as §1
# [11] = test system: NCI-H1666
# How it was run: as §1
# [12] = test system: NCI-H2170
# How it was run: as §1
# [13] = test system: NCI-H3122
# How it was run: as §1
# [14] = test system: NCI-H441
# How it was run: as §1
# [15] = test system: NCI-H727
# How it was run: as §1
# [16] = test system: NCI-H838
# How it was run: as §1
# [17] = test system: PC-14
# How it was run: as §1
# [18] = test system: SW 900
# How it was run: as §1
compound,measurement,setting,value
Clc1ccc(Nc2nnc(Cc3ccncc3)c3ccccc23)cc1 [Vatalanib] + NC(=O)Nc1cc(-c2cccc(F)c2)sc1C(=O)N[C@H]1CCCNC1 [AZD7762] (partner 0.2 µM),relative viability,[1]; first compound 0.04 µM,0.611
same,relative viability,[1]; first compound 0.1265 µM,0.57
same,relative viability,[1]; first compound 0.4 µM,0.621
same,relative viability,[1]; first compound 1.265 µM,0.648
same,relative viability,[1]; first compound 4 µM,0.57
same,relative viability,[2]; first compound 0.04 µM,0.7
same,relative viability,[2]; first compound 0.4 µM,0.744
same,relative viability,[2]; first compound 1.265 µM,0.853
same,relative viability,[2]; first compound 4 µM,0.719
same,relative viability,[3]; first compound 0.04 µM,0.676
same,relative viability,[3]; first compound 0.1265 µM,0.732
same,relative viability,[3]; first compound 0.4 µM,0.596
same,relative viability,[3]; first compound 1.265 µM,0.602
same,relative viability,[3]; first compound 4 µM,0.685
same,relative viability,[4]; first compound 0.04 µM,0.683
same,relative viability,[4]; first compound 0.1265 µM,0.599
same,relative viability,[4]; first compound 0.4 µM,0.588
same,relative viability,[4]; first compound 1.265 µM,0.469
same,relative viability,[4]; first compound 4 µM,0.574
same,relative viability,[5]; first compound 0.04 µM,0.646
same,relative viability,[5]; first compound 0.1265 µM,0.623
same,relative viability,[5]; first compound 0.4 µM,0.679
same,relative viability,[5]; first compound 1.265 µM,0.679
same,relative viability,[5]; first compound 4 µM,0.64
same,relative viability,[6]; first compound 0.04 µM,0.41
same,relative viability,[6]; first compound 0.1265 µM,0.473
same,relative viability,[6]; first compound 0.4 µM,0.173
same,relative viability,[6]; first compound 1.265 µM,0.246
same,relative viability,[6]; first compound 4 µM,0.34
same,relative viability,[7]; first compound 0.04 µM,0.325
same,relative viability,[7]; first compound 0.1265 µM,0.253
same,relative viability,[7]; first compound 0.4 µM,0.32
same,relative viability,[7]; first compound 1.265 µM,0.194
same,relative viability,[7]; first compound 4 µM,0.226
same,relative viability,[8]; first compound 0.04 µM,0.394
same,relative viability,[8]; first compound 0.1265 µM,0.412
same,relative viability,[8]; first compound 0.4 µM,0.496
same,relative viability,[8]; first compound 1.265 µM,0.353
same,relative viability,[8]; first compound 4 µM,0.446
same,relative viability,[9]; first compound 0.04 µM,0.351
same,relative viability,[9]; first compound 0.1265 µM,0.442
same,relative viability,[9]; first compound 0.4 µM,0.345
same,relative viability,[9]; first compound 1.265 µM,0.258
same,relative viability,[9]; first compound 4 µM,0.287
same,relative viability,[10]; first compound 0.04 µM,1.07
same,relative viability,[10]; first compound 0.1265 µM,1.08
same,relative viability,[10]; first compound 0.4 µM,1.18
same,relative viability,[10]; first compound 1.265 µM,1.06
same,relative viability,[10]; first compound 4 µM,0.997
same,relative viability,[11]; first compound 0.04 µM,0.733
same,relative viability,[11]; first compound 0.1265 µM,0.874
same,relative viability,[11]; first compound 0.4 µM,0.855
same,relative viability,[11]; first compound 1.265 µM,0.694
same,relative viability,[11]; first compound 4 µM,0.762
same,relative viability,[12]; first compound 0.04 µM,0.988
same,relative viability,[12]; first compound 0.1265 µM,0.77
same,relative viability,[12]; first compound 0.4 µM,0.892
same,relative viability,[12]; first compound 1.265 µM,0.837
same,relative viability,[12]; first compound 4 µM,0.785
same,relative viability,[13]; first compound 0.04 µM,1.07
same,relative viability,[13]; first compound 0.1265 µM,0.969
same,relative viability,[13]; first compound 0.4 µM,1.02
same,relative viability,[13]; first compound 1.265 µM,0.966
same,relative viability,[13]; first compound 4 µM,0.995
same,relative viability,[14]; first compound 0.04 µM,1.05
same,relative viability,[14]; first compound 0.1265 µM,1.18
same,relative viability,[14]; first compound 0.4 µM,1.19
same,relative viability,[14]; first compound 1.265 µM,1.02
same,relative viability,[14]; first compound 4 µM,0.892
same,relative viability,[15]; first compound 0.1265 µM,0.49
same,relative viability,[15]; first compound 0.4 µM,0.774
same,relative viability,[15]; first compound 1.265 µM,0.654
same,relative viability,[15]; first compound 4 µM,0.538
same,relative viability,[16]; first compound 0.04 µM,1.07
same,relative viability,[16]; first compound 0.1265 µM,0.882
same,relative viability,[16]; first compound 0.4 µM,1
same,relative viability,[16]; first compound 1.265 µM,0.867
same,relative viability,[16]; first compound 4 µM,0.87
same,relative viability,[17]; first compound 0.04 µM,0.31
same,relative viability,[17]; first compound 0.1265 µM,0.332
same,relative viability,[17]; first compound 1.265 µM,0.26
same,relative viability,[17]; first compound 4 µM,0.318
same,relative viability,[18]; first compound 0.04 µM,0.596
same,relative viability,[18]; first compound 0.1265 µM,0.653
same,relative viability,[18]; first compound 0.4 µM,0.567
same,relative viability,[18]; first compound 1.265 µM,0.69
same,relative viability,[18]; first compound 4 µM,0.6
C[C@@H]1CN(CC(=O)Nc2ccc3c(c2)Cc2cccc(-c4cc(=O)cc(N5CCOCC5)o4)c2S3)C[C@H](C)O1 + NC(=O)Nc1cc(-c2cccc(F)c2)sc1C(=O)N[C@H]1CCCNC1 [AZD7762] (partner 0.2 µM),relative viability,[1]; first compound 0.04 µM,0.5
same,relative viability,[1]; first compound 0.1265 µM,0.544
same,relative viability,[1]; first compound 0.4 µM,0.586
same,relative viability,[1]; first compound 4 µM,0.478
same,relative viability,[2]; first compound 0.1265 µM,0.742
same,relative viability,[2]; first compound 0.4 µM,1.52
same,relative viability,[2]; first compound 4 µM,0.971
same,relative viability,[3]; first compound 0.04 µM,0.612
same,relative viability,[3]; first compound 0.1265 µM,0.566
same,relative viability,[3]; first compound 0.4 µM,0.625
same,relative viability,[3]; first compound 4 µM,0.645
same,relative viability,[4]; first compound 0.04 µM,0.644
same,relative viability,[4]; first compound 0.1265 µM,0.565
same,relative viability,[4]; first compound 0.4 µM,0.594
same,relative viability,[4]; first compound 4 µM,0.38
same,relative viability,[5]; first compound 0.04 µM,0.651
same,relative viability,[5]; first compound 0.1265 µM,0.751
same,relative viability,[5]; first compound 0.4 µM,0.713
same,relative viability,[5]; first compound 4 µM,0.562
same,relative viability,[6]; first compound 0.04 µM,0.296
same,relative viability,[6]; first compound 0.1265 µM,0.259
same,relative viability,[6]; first compound 0.4 µM,0.227
same,relative viability,[6]; first compound 4 µM,0.329
same,relative viability,[7]; first compound 0.04 µM,0.247
same,relative viability,[7]; first compound 0.1265 µM,0.253
same,relative viability,[7]; first compound 0.4 µM,0.163
same,relative viability,[7]; first compound 4 µM,0.184
same,relative viability,[8]; first compound 0.04 µM,0.331
same,relative viability,[8]; first compound 0.1265 µM,0.363
same,relative viability,[8]; first compound 0.4 µM,0.293
same,relative viability,[8]; first compound 4 µM,0.432
same,relative viability,[9]; first compound 0.04 µM,0.334
same,relative viability,[9]; first compound 0.1265 µM,0.472
same,relative viability,[9]; first compound 0.4 µM,0.465
same,relative viability,[9]; first compound 4 µM,0.363
same,relative viability,[10]; first compound 0.04 µM,1.08
same,relative viability,[10]; first compound 0.1265 µM,1.09
same,relative viability,[10]; first compound 0.4 µM,1.12
same,relative viability,[10]; first compound 4 µM,0.95
same,relative viability,[11]; first compound 0.04 µM,0.891
same,relative viability,[11]; first compound 0.1265 µM,0.891
same,relative viability,[11]; first compound 0.4 µM,0.941
same,relative viability,[11]; first compound 4 µM,0.765
same,relative viability,[12]; first compound 0.04 µM,0.95
same,relative viability,[12]; first compound 0.1265 µM,0.807
same,relative viability,[12]; first compound 0.4 µM,0.812
same,relative viability,[12]; first compound 4 µM,0.633
same,relative viability,[13]; first compound 0.04 µM,1.01
same,relative viability,[13]; first compound 0.1265 µM,0.922
same,relative viability,[13]; first compound 0.4 µM,1.05
same,relative viability,[13]; first compound 4 µM,0.733
same,relative viability,[14]; first compound 0.04 µM,1.28
same,relative viability,[14]; first compound 0.1265 µM,1.16
same,relative viability,[14]; first compound 0.4 µM,1.02
same,relative viability,[14]; first compound 4 µM,1.01
same,relative viability,[15]; first compound 0.04 µM,0.525
same,relative viability,[15]; first compound 0.1265 µM,0.625
same,relative viability,[15]; first compound 0.4 µM,0.501
same,relative viability,[15]; first compound 4 µM,0.7
same,relative viability,[16]; first compound 0.04 µM,0.802
same,relative viability,[16]; first compound 0.1265 µM,0.909
same,relative viability,[16]; first compound 0.4 µM,0.992
same,relative viability,[16]; first compound 4 µM,0.861
same,relative viability,[17]; first compound 0.04 µM,0.289
same,relative viability,[17]; first compound 0.1265 µM,0.308
same,relative viability,[17]; first compound 0.4 µM,0.32
same,relative viability,[17]; first compound 4 µM,0.276
same,relative viability,[18]; first compound 0.04 µM,0.629
same,relative viability,[18]; first compound 0.1265 µM,0.669
same,relative viability,[18]; first compound 0.4 µM,0.506
same,relative viability,[18]; first compound 4 µM,0.281
